Values joined by “and” are separate entries in the source; they are usually repeats but may differ in a detail not shown here. Identical values can stand only once.
Test: xn = mol fraction of the nth substance listed

CC[N+](CC)(CC)CC.[Cl-] + CCCCCCCCCC(=O)O
100 kPa, x1 = 0.333
Settings	electrical conductivity [S/m]	viscosity [mPa·s]
293.15 K	0.0223	275
303.15 K	0.0338	185
313.15 K	0.0498	128
323.15 K	0.0718	90
333.15 K	0.101	64.9

CC(=O)[O-].CC[n+]1ccn(C)c1 + CN(CCO)CCO
101 kPa
Settings	electrical conductivity [S/m]	viscosity [mPa·s]
288.15 K, x1 = 0.2002	0.036	150.1
288.15 K, x1 = 0.4995	0.066	174
293.15 K, x1 = 0.4001	0.071	123.1
298.15 K, x1 = 0.4995	0.112	97.7
303.15 K, x1 = 0.2002	0.065	65.1
303.15 K, x1 = 0.5998	0.171	81.8
303.15 K, x1 = 1	0.358	102.4
308.15 K, x1 = 0.8999	0.384	73.4
313.15 K, x1 = 0.4995	0.229	48.5
313.15 K, x1 = 0.7003	0.343	52.3
313.15 K, x1 = 0.7998	0.401	54.1
318.15 K, x1 = 0.1002	0.051	29.4
318.15 K, x1 = 0.7003	0.426	42.4
318.15 K, x1 = 0.8999	0.598	46.3
318.15 K, x1 = 1	0.724	47.7
323.15 K, x1 = 0.1002	0.063	23.5
323.15 K, x1 = 1	0.883	39
328.15 K, x1 = 0.1002	0.075	18.9
328.15 K, x1 = 0.4995	0.414	26.5
328.15 K, x1 = 0.5998	0.519	27.6
333.15 K, x1 = 0.8999	1.06	25.7
333.15 K, x1 = 1	1.25	26.7
343.15 K, x1 = 0.4001	0.52	14.88
348.15 K, x1 = 0.4995	0.795	13.87
353.15 K, x1 = 0.2002	0.331	8.91
353.15 K, x1 = 0.5998	1.2	12.74
353.15 K, x1 = 0.7998	1.68	–

CCCCCCCO + CCCC[n+]1ccn(C)c1.O=S(=O)([N-]S(=O)(=O)C(F)(F)F)C(F)(F)F
298 K, 100 kPa
Settings	viscosity [mPa·s]
x2 = 0	5.956
x2 = 0.7975	33.43
x2 = 0.9013	40.9

CCCO + CC[n+]1ccn(C)c1.N#C[S-]
101 kPa, x2 = 0
Settings	viscosity [mPa·s]
283.15 K	2.78
293.15 K	2.18
303.15 K	1.72
313.15 K	1.36
323.15 K	1.11

CCCC[n+]1ccn(C)c1.N#C[N-]C#N + OCC(O)CO + O
viscosity [mPa·s], 101 kPa
Settings	x2 = 0.00317, x3 = 0.9588	x2 = 0.005245, x3 = 0.8687	x2 = 0.006424, x3 = 0.955	x2 = 0.009764, x3 = 0.9511	x2 = 0.01072, x3 = 0.8605	x2 = 0.0132, x3 = 0.9472	x2 = 0.01645, x3 = 0.8519	x2 = 0.02243, x3 = 0.8428
313.15 K	1.38	1.68	1.46	1.53	1.72	1.59	1.78	1.81
333.15 K	1.25	1.33	1.29	1.34	1.37	1.39	1.41	1.43
353.15 K	1.03	1.15	1.03	1.07	1.17	1.08	1.22	1.34

C[C@H](N)C(=O)[O-].C[N+](C)(C)CCO + O
Settings	viscosity [mPa·s]
287.97 K, 100 kPa, x1 = 0.2939	177
288.1 K, 100 kPa, x1 = 1	5100
289.25 K, 100 kPa, x1 = 0.5975	970
289.31 K, 100 kPa, x1 = 0.692	1467
289.96 K, 100 kPa, x1 = 1	3700
290.48 K, 100 kPa, x1 = 0.2939	153
290.53 K, 100 kPa, x1 = 0.7994	1752
292.92 K, 100 kPa, x1 = 0.097	8.7
292.92 K, 100 kPa, x1 = 0.4948	490
292.92 K, 100 kPa, x1 = 0.5975	710
292.92 K, 100 kPa, x1 = 0.692	1030
294.1 K, 100 kPa, x1 = 0.097	8.4
294.1 K, 100 kPa, x1 = 0.4948	450
294.1 K, 100 kPa, x1 = 0.692	930
294.1 K, 100 kPa, x1 = 0.7994	1250
295.27 K, 100 kPa, x1 = 0.7994	1129
296.45 K, 100 kPa, x1 = 0.4948	377
296.45 K, 100 kPa, x1 = 0.7994	1016
297.63 K, 100 kPa, x1 = 0.097	7.4
298.1 K, 101.3 kPa, x1 = 0.2727	33
298.81 K, 100 kPa, x1 = 0.2939	90
298.81 K, 100 kPa, x1 = 0.7994	840
299.98 K, 100 kPa, x1 = 0.097	6.9
299.98 K, 100 kPa, x1 = 0.3748	156
300.27 K, 100 kPa, x1 = 1	1538
301.16 K, 100 kPa, x1 = 0.692	530
302.34 K, 100 kPa, x1 = 0.3748	135
303.51 K, 100 kPa, x1 = 0.3748	126
303.51 K, 100 kPa, x1 = 0.7994	580
304.72 K, 100 kPa, x1 = 1	1206
305.86 K, 100 kPa, x1 = 0.3748	109
305.86 K, 100 kPa, x1 = 0.4948	200
305.86 K, 100 kPa, x1 = 0.8993	680
307.04 K, 100 kPa, x1 = 0.3748	103
307.04 K, 100 kPa, x1 = 0.5975	254
307.04 K, 100 kPa, x1 = 0.8993	630
313 K, 101.3 kPa, x1 = 0.1233	5.7
323.2 K, 100 kPa, x1 = 1	337
333 K, 101.3 kPa, x1 = 0.05881	2.27

C=CC(=O)OC + CCCC[n+]1ccn(C)c1.F[B-](F)(F)F
101 kPa
Settings	viscosity [mPa·s]
293.15 K, x2 = 0.1387	2.163
293.15 K, x2 = 0.9242	108.1
298.15 K, x2 = 0	0.465
303.15 K, x2 = 0.3354	6.16
303.15 K, x2 = 0.4317	11.33
308.15 K, x2 = 0.8484	39.89
313.15 K, x2 = 0	0.36
318.15 K, x2 = 0	0.334
318.15 K, x2 = 0.6532	12.51
318.15 K, x2 = 0.9242	31.5

CC(=O)[O-].CC[n+]1ccn(C)c1 + Cn1ccnc1 + CCOC(C)=O
298.15 K, 101 kPa, x1 = 1, x2 = 0
Settings	electrical conductivity [S/m]	viscosity [mPa·s]
–	0.297	133.9

CCCn1cc[n+](C)c1.[Br-] + O
Settings	electrical conductivity	viscosity [mPa·s]
298 K, 101 kPa, x2 = 0.22	0.14 S/m and 0.17 S/m	–
298 K, 101 kPa, x2 = 0.88	9.16 S/m	–
298 K, 101 kPa, x2 = 0.93	9.89 S/m	–
298 K, 101 kPa, x2 = 0.98	6.44 S/m	–
303.15 K, 100 kPa, x1 = 0.4005	–	29.2
323.15 K, 100 kPa, x1 = 0.0497	–	1.09

CC(=O)[O-].CC[n+]1ccn(C)c1 + OC[C@@H](O)[C@@H](O)[C@H](O)[C@@H](O)CO
Settings	viscosity [mPa·s]
313.15 K, 100 kPa, x2 = 0	53.4

OCC(F)(F)F + CCCC[n+]1ccn(C)c1.F[B-](F)(F)F
viscosity [mPa·s], 101 kPa
Settings	x1 = 0.3913	x1 = 0.5788	x1 = 0.7238	x1 = 0.8247	x1 = 0.9013	x1 = 0.9587	x1 = 1
278.15 K	42.31	15.82	7.33	4.71	3.71	3.42	3.28
283.15 K	34.09	13.39	6.37	4.13	3.25	2.97	2.81
288.15 K	27.93	11.45	5.59	3.66	2.88	2.6	2.42
293.15 K	23.21	9.89	4.95	3.27	2.56	2.29	2.11
298.15 K	19.52	8.63	4.41	2.93	2.3	2.03	1.84
303.15 K	16.61	7.59	3.96	2.65	2.07	1.81	1.62
308.15 K	14.28	6.72	3.57	2.41	1.88	1.62	1.43
313.15 K	12.39	6	3.25	2.21	1.71	1.46	1.27
318.15 K	10.84	5.39	2.97	2.02	1.56	1.33	1.13
323.15 K	9.56	4.87	2.72	1.87	1.43	1.21	1.02
328.15 K	8.49	4.42	2.5	1.72	1.31	1.1	0.925
333.15 K	7.59	4.03	2.31	1.59	1.21	1	0.824
